# According to US6548242B2, “Process for the sterilization of biological compositions and the product thereby” (priority 1990, dated 2003):
# “And” between values parts separate entries of the source, which are not always exact repeats. Equal values may be shown once. Read-outs that look alike come from different tables or passages of the source.
# How the values were obtained:
# [1] = system: platelets; assay: Platelet aggregation in response to collagen after treatment of platelet concentrate; type: cell-based; conditions: for Agqregation Response % control / Aggregation Response % Control / aggregation response to collagen: platelet conc.; for Agqregation Response % control / Aggregation Response % Control: 25 μg/ml AMT; for % Untreated Control - Extent of Aggregation Response to Collagen, untreated / % Untreated Control - Rate of Aggregation Response to Collagen, untreated: flavonoid present, no AMT/UVA treatment; for aggregation response to collagen: 100 μg/ml AMT, 90 min UVA
# [2] = system: RBCCs; assay: Extracellular (plasma) potassium of stored RBCCs; conditions: RBCC, 6.5 μM AlPcS4 + 44 J/cm^2 visible light + 4 mM GSH, 2 days
# [3] = system: cell-free vesicular stomatitis virus (VSV); type: cell-based
# [4] = system: bacteriophage M13; type: cell-based
# [5] = system: encephalomyocarditis virus (EMC); type: cell-based
# [6] = system: cell-free vesicular stomatitis virus (VSV); conditions: cited from earlier work
# [7] = system: cell-associated VSV; type: cell-based, vesicular stomatitis virus
# [8] = 11 mW/cm^2 UVA 30 min, quencher 2 mM
# [9] = 11 mW/cm^2 UVA 30 min, quencher 10 mM
# [10] = 11 mW/cm^2 UVA 60 min, quencher 2 mM
# [11] = 11 mW/cm^2 UVA 90 min, quencher 2 mM
# [12] = 7.5 mW/cm^2 UVA 30 min, quencher 2 mM
# [13] = 7.5 mW/cm^2 UVA 30 min, quencher 4 mM
# [14] = 7.5 mW/cm^2 UVA 30 min, quencher 10 mM
# [15] = 7.5 mW/cm^2 UVA 60 min, quencher 2 mM
# [16] = 7.5 mW/cm^2 UVA 60 min, quencher 4 mM
# [17] = 7.5 mW/cm^2 UVA 90 min, quencher 2 mM
# [18] = 7.5 mW/cm^2 UVA 90 min, quencher 4 mM
# [19] = 25 μg/ml AMT and 90 minutes of UVA in presence of flavonoid, overnight storage
# [20] = 25 μg/ml AMT and 90 minutes of UVA, no flavonoid
# [21] = 7.5 mW/cm^2 UVA 30 min, quencher 50 mM
# [22] = 7.5 mW/cm^2 UVA 60 min, quencher 10 mM
# [23] = 7.5 mW/cm^2 UVA 60 min, quencher 50 mM
compound,measurement,setting,value
"N[C@@H](Cc1c[nH]c2ccccc12)C(=O)O [Tryptophan, tryptophan]",Agqregation Response % control,[1]; [8],70 % control
same,Agqregation Response % control,"[1]; 11 mW/cm^2 UVA 30 min, quencher 4 mM",60 % control
same,Agqregation Response % control,[1]; [9],45 % control
same,Agqregation Response % control,[1]; [10],50 % control
same,Agqregation Response % control,"[1]; 11 mW/cm^2 UVA 60 min, quencher 4 mM",45 % control
same,Agqregation Response % control,"[1]; 11 mW/cm^2 UVA 60 min, quencher 10 mM",20 % control
same,Agqregation Response % control,[1]; [11],30 % control
same,Agqregation Response % control,"[1]; 11 mW/cm^2 UVA 90 min, quencher 4 mM",20 % control
same,Agqregation Response % control,"[1]; 11 mW/cm^2 UVA 90 min, quencher 10 mM",0 % control
aluminum phthalocyanine tetrasulfonate [AlPcS4],plasma K+,"[2]; with γ-irradiation 25 Gy, no rutin",75 mM
same,plasma K+,[2]; without γ-irradiation,60 mM
"N[C@@H](CCC(=O)N[C@@H](CS)C(=O)NCC(=O)O)C(=O)O [Glutathione, glutathione]",Aggregation Response % Control,[1]; [12],80 % Control
same,Aggregation Response % Control,[1]; [13],80 % Control
same,Aggregation Response % Control,[1]; [14],75 % Control
same,Aggregation Response % Control,[1]; [15],60 % Control
same,Aggregation Response % Control,[1]; [16],55 % Control
same,Aggregation Response % Control,[1]; [17],40 % Control
same,Aggregation Response % Control,[1]; [18],25 % Control
same,Virus Inactivation (log10) Cell-Free VSV,[3],≧6.0 log10
same,Virus Kill (log10) M13,[4],4.4 log10
COc1ccc([C@@H]2CC(=O)c3c(O)cc(O[C@@H]4O[C@H](CO[C@@H]5O[C@@H](C)[C@H](O)[C@@H](O)[C@H]5O)[C@@H](O)[C@H](O)[C@H]4O)cc3O2)cc1O [hesperidin],"% Untreated Control - Extent of Aggregation Response to Collagen, treated",[1]; [19],100 % Untreated Control
same,"% Untreated Control - Rate of Aggregation Response to Collagen, treated",[1]; [19],86 % Untreated Control
same,"% Untreated Control - Extent of Aggregation Response to Collagen, untreated",[1]; overnight storage,98 % Untreated Control
same,"% Untreated Control - Rate of Aggregation Response to Collagen, untreated",[1]; overnight storage,90 % Untreated Control
Cc1c(C)c2c(c(C)c1OP(=O)(O)O)CC[C@@](C)(CCC[C@H](C)CCC[C@H](C)CCCC(C)C)O2 [α-tocopherol phosphate],Agqregation Response % control,"[1]; 11 mW/cm^2 UVA 30 min, quencher 0.5 mM",76 % control
same,Agqregation Response % control,"[1]; 11 mW/cm^2 UVA 30 min, quencher 1.0 mM",75 % control
same,Agqregation Response % control,[1]; [8],70 % control
same,Agqregation Response % control,"[1]; 11 mW/cm^2 UVA 60 min, quencher 0.5 mM",55 % control
same,Agqregation Response % control,"[1]; 11 mW/cm^2 UVA 60 min, quencher 1.0 mM",60 % control
same,Agqregation Response % control,[1]; [10],50 % control
same,Agqregation Response % control,"[1]; 11 mW/cm^2 UVA 90 min, quencher 0.5 mM",35 % control
same,Agqregation Response % control,"[1]; 11 mW/cm^2 UVA 90 min, quencher 1.0 mM",40 % control
same,Agqregation Response % control,[1]; [11],30 % control
"O=C1O[C@H]([C@@H](O)CO)C(O)=C1O [Ascorbate, ascorbate]",Virus Kill (log10) VSV,[3],≧6.5 log10
same,Virus Kill (log10) M13,[4],4.7 log10
same,Virus Kill (log10) EMC,[5],≧7.7 log10
"CN(C)c1ccc2nc3ccc(=[N+](C)C)cc-3sc2c1 [M8, methylene blue]",LOG10 VIRUS KILL VSV,[3],≧5 LOG10
O=c1cc(-c2ccccc2)oc2cc(O)cc(O)c12 [chrysin],"% Untreated Control - Extent of Aggregation Response to Collagen, treated",[1]; [19],90 % Untreated Control
same,"% Untreated Control - Rate of Aggregation Response to Collagen, treated",[1]; [19],85 % Untreated Control
same,"% Untreated Control - Extent of Aggregation Response to Collagen, untreated",[1]; overnight storage,100/100 % Untreated Control
same,"% Untreated Control - Rate of Aggregation Response to Collagen, untreated",[1]; overnight storage,100/100 % Untreated Control
"Cc1oc2c(C)c3oc(=O)cc(C)c3cc2c1CN [AMT, 4′-aminomethyl-4,5′,8-trimethylpsoralen]","% Untreated Control - Extent of Aggregation Response to Collagen, treated",[1]; [20],44 % Untreated Control
same,"% Untreated Control - Rate of Aggregation Response to Collagen, treated",[1]; [20],24 % Untreated Control
same,agg response,"[1]; Platelet Conc., 50 μg/ml AMT + 57 J/cm^2 UVA, quencher none",≤ 30%
same,Aggregation Response % Control,"[1]; 7.5 mW/cm^2 UVA 60 min, no quencher",52 % Control
same,Aggregation Response % Control,"[1]; 7.5 mW/cm^2 UVA 90 min, no quencher",35 % Control
same,Agqregation Response % control,"[1]; 11 mW/cm^2 UVA 30 min, no quencher",75 % control
same,Agqregation Response % control,"[1]; 11 mW/cm^2 UVA 60 min, no quencher",52 % control
same,aggregation response to collagen,[1]; no quencher,no response at all
same,LOG10 VIRUS KILL VSV,[3],≧6 LOG10
same,inactivation of cell-free VSV,[3],completely inactivated
same,LOG10 VIRUS KILL M13,[4],3 LOG10 and 5 LOG10
same,inactivation of bacteriophage M13,[4],at least 4 log 10
same,inactivation of cell-free VSV,[6],≥ 6.0 log10
"OCC(O)CO [Glycerol, glycerol]",Aggregation Response % Control,[1]; [12],90 % Control
same,Aggregation Response % Control,[1]; [13],95 % Control
same,Aggregation Response % Control,[1]; [14],80 % Control
same,Aggregation Response % Control,[1]; [21],85 % Control
same,Aggregation Response % Control,[1]; [15],50 % Control
same,Aggregation Response % Control,[1]; [16],55 % Control
same,Aggregation Response % Control,[1]; [22],50 % Control
same,Aggregation Response % Control,[1]; [23],50 % Control
same,Aggregation Response % Control,[1]; [18],35 % Control
same,Virus Kill (log10) M13,[4],6.6 log10
Superoxide Dismutase,Aggregation Response % Control,"[1]; 7.5 mW/cm^2 UVA 30 min, quencher 20 μg/ml",85 % Control
same,Aggregation Response % Control,"[1]; 7.5 mW/cm^2 UVA 30 min, quencher 100 μg/ml",75 % Control
same,Aggregation Response % Control,"[1]; 7.5 mW/cm^2 UVA 60 min, quencher 20 μg/ml",50 % Control
same,Aggregation Response % Control,"[1]; 7.5 mW/cm^2 UVA 60 min, quencher 100 μg/ml",45 % Control
same,Aggregation Response % Control,"[1]; 7.5 mW/cm^2 UVA 90 min, quencher 20 μg/ml",30 % Control
same,Virus Inactivation (log10) Cell-Free VSV,[3],≧6.0 log10
same,Virus Kill (log10) M13,[4],3.9 log10
"OC[C@@H](O)[C@@H](O)[C@H](O)[C@H](O)CO [Mannitol, mannitol]",Aggregation Response % Control,[1]; [12],95 % Control
same,Aggregation Response % Control,[1]; [13],95 % Control
same,Aggregation Response % Control,[1]; [14],91 % Control
same,Aggregation Response % Control,[1]; [21],85 % Control
same,Aggregation Response % Control,[1]; [15],60 % Control
same,Aggregation Response % Control,[1]; [16],58 % Control
same,Aggregation Response % Control,[1]; [22],56 % Control
same,Aggregation Response % Control,[1]; [23],55 % Control
same,Aggregation Response % Control,[1]; [17],32 % Control
same,Aggregation Response % Control,"[1]; 7.5 mW/cm^2 UVA 90 min, quencher 50 mM",30 % Control
same,aggregation response to collagen,[1]; 2 mM mannitol,no response at all
same,Virus Kill (log10) M13,[4],6.6 log10
sodium carpryl N-acetyl tryptophan [SCNAT],Virus Kill (log10) M13,[4],1.6 log10
C[C@@H]1O[C@@H](O[C@H]2[C@H](Oc3cc(O)c4c(c3)O[C@H](c3ccc(O)cc3)CC4=O)O[C@H](CO)[C@@H](O)[C@@H]2O)[C@H](O)[C@H](O)[C@H]1O [naringin],"% Untreated Control - Extent of Aggregation Response to Collagen, treated",[1]; [19],78 % Untreated Control
same,"% Untreated Control - Rate of Aggregation Response to Collagen, treated",[1]; [19],61 % Untreated Control
same,"% Untreated Control - Extent of Aggregation Response to Collagen, untreated",[1]; overnight storage,90 % Untreated Control
same,"% Untreated Control - Rate of Aggregation Response to Collagen, untreated",[1]; overnight storage,83 % Untreated Control
"N[C@@H](Cc1c[nH]cn1)C(=O)O [Histidine, histidine]",Agqregation Response % control,"[1]; 11 mW/cm^2 UVA 30 min, quencher 5 mM",75 % control
same,Agqregation Response % control,[1]; [9],65 % control
same,Agqregation Response % control,"[1]; 11 mW/cm^2 UVA 60 min, quencher 5 mM",55 % control
same,Agqregation Response % control,"[1]; 11 mW/cm^2 UVA 90 min, quencher 5 mM",35 % control
same,Virus Kill (log10) Cell-free VSV,[3],5.1 log10 and 4.8 log10
same,Virus Kill (log10) M13,[4],4.0 log10
O=c1c(O)c(-c2ccc(O)c(O)c2)oc2cc(O)cc(O)c12 [quercetin],"% Untreated Control - Extent of Aggregation Response to Collagen, treated",[1]; [19],98/98 % Untreated Control
same,"% Untreated Control - Rate of Aggregation Response to Collagen, treated",[1]; [19],98/98 % Untreated Control
same,"% Untreated Control - Extent of Aggregation Response to Collagen, untreated",[1]; overnight storage,100/100 % Untreated Control
same,"% Untreated Control - Rate of Aggregation Response to Collagen, untreated",[1]; overnight storage,100/100 % Untreated Control
same,Virus Kill (log10) VSV,[3],≧6.5 log10
same,inactivation of cell-associated VSV,[7],~6 log10
same,Virus Kill (log10) M13,[4],5.0 log10
same,Virus Kill (log10) EMC,[5],≧7.7 log10
